For orientation: IC50 means the point on the concentration scale where inhibition reaches its midpoint.

Active and inactive are the calls of the source.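 Rule for the calls: active = mean IC50 for reducing PEG3 promoter reporter signal at or below a set limit, with IC50 above the limit in both counter screens; inactive = the rest, including counter screen hits.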 Some results are limits rather than exact numbers.

Experimental findings from PubChem BioAssay AID624167 (Sanford-Burnham Center for Chemical Genomics, 2012) are described below.

The test system of one assay is Rat fibroblasts (CREF). The assay can be described thus: inhibition of PEG-3 promoter-driven reporter – cell-based, HeLa, luciferase, CREF/GAPDH counter-screen panel, dose response (AID 624167). Conditions: CREF/GAPDH counter-screens. For orientation: Counterscreens check selectivity or assay interference.
Assay in assay [1]: as above
Conditions: CREF/GAPDH counter-screens; GAPDH; mean of runs.

The test system of assay [2] is PEG-3. Described as above. Conditions: HeLa PEG-Prom luciferase reporter, overnight, CREF/GAPDH counter-screens. (A reporter such as luciferase makes a cellular process visible.)
Assay [3] has as its target PEG-3 (UniProt Q6IN02). Described as above. As to conditions: HeLa PEG-Prom luciferase reporter, overnight, CREF/GAPDH counter-screens, mean of runs.
The next assay relates to GAPDH. The assay is described as above. Conditions: CREF/GAPDH counter-screens.
[4] abbreviates: run 1, dose range 1, individual replicate IC50 per panel.
The mark [5] stands for this setting: run 2, dose range 1, individual replicate IC50 per panel.

PEG-3 (UniProt Q6IN02), sequence (Q6IN02 whole entry, looked up): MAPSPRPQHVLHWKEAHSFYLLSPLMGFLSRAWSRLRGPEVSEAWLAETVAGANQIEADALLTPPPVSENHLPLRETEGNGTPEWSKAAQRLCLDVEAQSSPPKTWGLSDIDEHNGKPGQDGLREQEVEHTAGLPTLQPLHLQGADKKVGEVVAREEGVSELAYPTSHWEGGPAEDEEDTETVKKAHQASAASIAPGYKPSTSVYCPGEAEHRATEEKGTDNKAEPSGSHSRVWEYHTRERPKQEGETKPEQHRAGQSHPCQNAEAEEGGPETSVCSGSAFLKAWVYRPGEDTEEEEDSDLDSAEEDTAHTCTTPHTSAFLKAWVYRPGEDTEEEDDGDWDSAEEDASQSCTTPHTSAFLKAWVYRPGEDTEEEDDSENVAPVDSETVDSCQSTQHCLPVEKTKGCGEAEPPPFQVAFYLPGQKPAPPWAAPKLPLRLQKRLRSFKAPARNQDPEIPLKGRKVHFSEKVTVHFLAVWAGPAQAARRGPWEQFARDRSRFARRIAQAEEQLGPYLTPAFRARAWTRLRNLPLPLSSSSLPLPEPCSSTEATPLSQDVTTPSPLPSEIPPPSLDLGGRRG

Consider `COc1ccc(Nc2ncnc3ccc(Br)cc23)c(OC)c1`, for which the IC50 was > 100 µM (inactive) in the assay with Rat fibroblasts (CREF) (mean of runs); over 100 µM in the assay with Rat fibroblasts (CREF) (setting [4]); over 100 µM in the assay on Rat fibroblasts (CREF) (setting [5]); 0.974 µM in assay [1]; 0.293 µM with PEG-3 [2] (setting [4]); 0.246 µM in the assay with PEG-3 [2] (setting [5]). Also, the IC50 on PEG-3 [3] is 0.27 µM; in the assay on GAPDH (setting [4]), 0.864 µM; in the assay on GAPDH (setting [5]), 1.08 µM.
As to `O=C(N/N=C\c1c(O)ccc2ccccc12)c1cncc(Br)c1`, the IC50 was 9.73 µM with Rat fibroblasts (CREF) (mean of runs); 2.43 µM in the assay with Rat fibroblasts (CREF) (setting [4]); 17 µM with Rat fibroblasts (CREF) (setting [5]); 0.52 µM in the assay with PEG-3 [2] (setting [4]); 0.504 µM with PEG-3 [2] (setting [5]); 0.512 µM at PEG-3 [3]. In addition, the IC50 was 40.3 µM in the assay on GAPDH (setting [4]) and 69.7 µM with GAPDH (setting [5]). In assay [1], the IC50 result is “inactive”.
With `Cc1cc(C)c(C)c(S(=O)(=O)N2CCN(C(=O)c3cc(=O)[nH]c4ccccc34)CC2)c1C`, the IC50 with Rat fibroblasts (CREF) (mean of runs) was 55.2 µM (inactive); in the assay with Rat fibroblasts (CREF) (setting [4]), over 100 µM; in the assay with Rat fibroblasts (CREF) (setting [5]) it was 10.3 µM; with PEG-3 [2] (setting [4]) it was 13.6 µM; with PEG-3 [2] (setting [5]), 5.06 µM; on PEG-3 [3] it was 9.32 µM. For the same molecule, the IC50 with GAPDH (setting [4]) was 24.9 µM; in the assay on GAPDH (setting [5]) it was 36.8 µM. For the same molecule, in assay [1], the IC50 result was “inactive”.
Take `COc1cc(/C=C2\SC(=Nc3ccccc3OC)NC2=O)ccc1O`: the IC50 in the assay on Rat fibroblasts (CREF) (mean of runs) was > 100 µM (inactive); in the assay on Rat fibroblasts (CREF) (setting [4]), over 100 µM; in the assay on Rat fibroblasts (CREF) (setting [5]), over 100 µM; in assay [1], > 100 µM (inactive); in the assay with PEG-3 [2] (setting [4]), 4.7 µM; in the assay with PEG-3 [2] (setting [5]) it was over 100 µM. For the same molecule, the IC50 with GAPDH (setting [4]) and with GAPDH (setting [5]) was over 100 µM throughout. Besides, the IC50 entry on PEG-3 [3] was “inactive”.
Turning to `C/C(=N\NC(=O)c1c(C)nc2ccccn12)c1ccc(O)cc1O`, the IC50 in the assay with Rat fibroblasts (CREF) (mean of runs) is 62.8 µM (inactive); in the assay with Rat fibroblasts (CREF) (setting [4]) it was over 100 µM; with Rat fibroblasts (CREF) (setting [5]), 25.5 µM; in assay [1], > 100 µM (inactive); with PEG-3 [2] (setting [4]) it was 1.31 µM; with PEG-3 [2] (setting [5]), 0.534 µM. In addition, the IC50 on PEG-3 [3] was 0.922 µM; with GAPDH (setting [4]) it was over 100 µM; in the assay with GAPDH (setting [5]), over 100 µM.
Consider `CN1CCC2(CC1)N=C(c1ccc(F)cc1)C(=S)N2C(=O)c1ccc(C(C)(C)C)cc1`, for which the IC50 in the assay on Rat fibroblasts (CREF) (mean of runs) is 36.5 µM; in the assay with Rat fibroblasts (CREF) (setting [4]), 28.6 µM; in the assay with Rat fibroblasts (CREF) (setting [5]) it was 44.5 µM; in assay [1], 20.5 µM; in the assay on PEG-3 [2] (setting [4]), 6.48 µM; in the assay with PEG-3 [2] (setting [5]) it was 1.01 µM. Besides, the IC50 is 3.75 µM on PEG-3 [3], 20.4 µM with GAPDH (setting [4]) and 20.6 µM in the assay on GAPDH (setting [5]).
Take `CCCC(=O)NC(c1ccc(C(C)C)cc1)c1ccc2cccnc2c1O` (centres undefined): the IC50 with Rat fibroblasts (CREF) (mean of runs) was > 100 µM (inactive); in the assay with Rat fibroblasts (CREF) (setting [4]) it was over 100 µM; in the assay with Rat fibroblasts (CREF) (setting [5]), over 100 µM; in the assay with PEG-3 [2] (setting [4]), 1.94 µM; in the assay with PEG-3 [2] (setting [5]) it was 0.814 µM; at PEG-3 [3], 1.38 µM. Moreover, the results for the IC50 in the assay with GAPDH (setting [4]) and in the assay with GAPDH (setting [5]) were 26.2 µM and 85.1 µM, respectively. In addition, the IC50 result in assay [1] is “inactive”.
On to `CN(C(=O)COC(=O)/C=C/c1cccc([N+](=O)[O-])c1)C1CCS(=O)(=O)C1` (centres undefined), for which the IC50 is > 100 µM (inactive) with Rat fibroblasts (CREF) (mean of runs); over 100 µM with Rat fibroblasts (CREF) (setting [4]); over 100 µM with Rat fibroblasts (CREF) (setting [5]); > 100 µM (inactive) in assay [1]; 0.452 µM in the assay with PEG-3 [2] (setting [4]); 0.452 µM in the assay with PEG-3 [2] (setting [5]). The IC50 on PEG-3 [3] was 0.452 µM; with GAPDH (setting [4]) it was over 100 µM; with GAPDH (setting [5]), over 100 µM.
As to `O=c1cnnc(N/N=C/c2ccccn2)[nH]1`, the IC50 was 67.1 µM (inactive) in the assay with Rat fibroblasts (CREF) (mean of runs); over 100 µM in the assay on Rat fibroblasts (CREF) (setting [4]); 34.1 µM in the assay with Rat fibroblasts (CREF) (setting [5]); > 100 µM (inactive) in assay [1]; 1.69 µM in the assay on PEG-3 [2] (setting [4]); 2.45 µM with PEG-3 [2] (setting [5]). Further, the IC50 is 2.07 µM at PEG-3 [3], over 100 µM in the assay on GAPDH (setting [4]) and over 100 µM in the assay with GAPDH (setting [5]).
For `CC(C)CCCCCCCCCCCCC(=O)NCC(=O)NC1C(O)C(O)C(Nc2ncnc3nc[nH]c23)OC1C(O)CO` (centres undefined), the IC50 in the assay with Rat fibroblasts (CREF) (mean of runs) was 50.1 µM (inactive); in the assay on Rat fibroblasts (CREF) (setting [4]) it was under 0.2 µM; with Rat fibroblasts (CREF) (setting [5]), over 100 µM; in assay [1], under 0.2 µM; with PEG-3 [2] (setting [4]) it was 3.44 µM; with PEG-3 [2] (setting [5]) it was under 0.2 µM. For the same molecule, the IC50 at PEG-3 [3] was 1.82 µM; in the assay on GAPDH (setting [4]), under 0.2 µM; in the assay with GAPDH (setting [5]), under 0.2 µM.
`COc1ccc(C(NC(=O)C(C)C)c2ccc3cccnc3c2O)cc1` (centres undefined): the IC50 is 23.3 µM in the assay on Rat fibroblasts (CREF) (mean of runs); 12.3 µM in the assay on Rat fibroblasts (CREF) (setting [4]); 34.3 µM in the assay on Rat fibroblasts (CREF) (setting [5]); > 100 µM (inactive) in assay [1]; 3.71 µM with PEG-3 [2] (setting [4]); 5.68 µM in the assay on PEG-3 [2] (setting [5]). The IC50 at PEG-3 [3] was 4.7 µM; in the assay on GAPDH (setting [4]) it was over 100 µM; in the assay on GAPDH (setting [5]), over 100 µM.
